Test results as given in ChEMBL document CHEMBL4732174, “Discovery of 6-(7-Nitro-2,1,3-benzoxadiazol-4-ylthio)hexanol Derivatives as Glutathione Transferase Inhibitors with Favorable Selectivity and Tolerated Toxicity” (J Med Chem, 2021).

Columns and labels:
[1] = target: T1, Glutathione S-transferase Mu 2 (Homo sapiens, UniProt P28161); assay: Inhibition of GSTM2-2 (unknown origin) using reduced GSH and CDNB as substrate incubated for 10 mins followed by substrate addition by microplate reader analysis
T1 sequence (P28161 whole entry): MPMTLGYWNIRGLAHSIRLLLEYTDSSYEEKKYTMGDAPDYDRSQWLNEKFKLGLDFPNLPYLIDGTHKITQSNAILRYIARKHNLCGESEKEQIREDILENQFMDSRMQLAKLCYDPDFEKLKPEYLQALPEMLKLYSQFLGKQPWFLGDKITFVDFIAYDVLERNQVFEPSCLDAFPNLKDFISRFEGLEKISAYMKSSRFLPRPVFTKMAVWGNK

[2] = target: T2, Glutathione S-transferase P (Homo sapiens, UniProt P09211); assay: Time dependent inhibition of GSTP1-1 (unknown origin) assessed as inhibition constant using reduced GSH and CDNB as substrate by spectrophotometric method
Target sequence in this assay (P09211 whole entry): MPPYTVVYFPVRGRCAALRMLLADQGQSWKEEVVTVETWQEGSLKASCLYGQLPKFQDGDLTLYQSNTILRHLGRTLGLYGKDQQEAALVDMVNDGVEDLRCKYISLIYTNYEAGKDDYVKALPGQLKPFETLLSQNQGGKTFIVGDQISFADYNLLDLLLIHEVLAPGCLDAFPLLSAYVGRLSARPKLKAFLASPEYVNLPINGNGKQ

A549 = assay: Antiproliferative activity against human A549 cells assessed as inhibition of cell proliferation incubated for 72 hrs by MTT assay; format: functional, cell-based; settings: A549, 72 h
[3] = Antiproliferative activity against […] B16 cells assessed as inhibition of cell proliferation incubated for 72 hrs by MTT assay; format: functional, cell-based; settings: B16, 72 h
143B [4] = assay: Antiproliferative activity against human 143B cells assessed as inhibition of cell proliferation incubated for 72 hrs by MTT assay; format: functional, cell-based
HOS = assay: Antiproliferative activity against human HOS cells assessed as inhibition of cell proliferation incubated for 72 hrs by MTT assay; format: functional, cell-based
143B [5] = assay: Induction of cell cycle arrest in human 143B cells assessed as accumulation at S phase at 2.5 uM incubated for 48 hrs by propidium iodide staining based flow cytometry (reference value: 32.03 %); format: functional
143B [6] = assay: Induction of cell cycle arrest in human 143B cells assessed as accumulation at G2 phase at 2.5 uM incubated for 48 hrs by propidium iodide staining based flow cytometry (reference value: 1.35 %); format: functional
143B [7] = assay: Induction of cell cycle arrest in human 143B cells assessed as accumulation at G1 phase at 5 uM incubated for 48 hrs by propidium iodide staining based flow cytometry (reference value: 66.62 %); format: functional
143B [8] = assay: Induction of cell cycle arrest in human 143B cells assessed as accumulation at S phase at 5 uM incubated for 48 hrs by propidium iodide staining based flow cytometry (reference value: 32.03 %); format: functional
143B [9] = assay: Induction of cell cycle arrest in human 143B cells assessed as accumulation at G2 phase at 10 uM incubated for 48 hrs by propidium iodide staining based flow cytometry (reference value: 1.35 %); format: functional
143B [10] = assay: Induction of apoptosis in human 143B cells assessed as apoptotic cells at 10 uM incubated for 24 hrs by Annexin V-FITC/PI double staining based flow cytometric analysis (reference value: 3.9%); format: functional
[11] = Volume of distribution in Sprague-Dawley rat at 80 mg/kg, po administered as single dose measured upto 48 hrs by LC-MS/MS analysis; settings: in vivo
[12] = MRT (0 to infinity) in Sprague-Dawley rat at 80 mg/kg, po administered as single dose measured upto 48 hrs by LC-MS/MS analysis; settings: in vivo
liver carboxylesterase = target: T3, liver carboxylesterase (Sus scrofa, UniProt Q29550); assay: Stability of the compound assessed as pig liver carboxylesterase-mediated compound hydrolysis at 10 mM measured after 24 hrs by HPLC analysis; format: ADME; settings: read-out: Drug degradation
T3 sequence (Q29550 whole entry): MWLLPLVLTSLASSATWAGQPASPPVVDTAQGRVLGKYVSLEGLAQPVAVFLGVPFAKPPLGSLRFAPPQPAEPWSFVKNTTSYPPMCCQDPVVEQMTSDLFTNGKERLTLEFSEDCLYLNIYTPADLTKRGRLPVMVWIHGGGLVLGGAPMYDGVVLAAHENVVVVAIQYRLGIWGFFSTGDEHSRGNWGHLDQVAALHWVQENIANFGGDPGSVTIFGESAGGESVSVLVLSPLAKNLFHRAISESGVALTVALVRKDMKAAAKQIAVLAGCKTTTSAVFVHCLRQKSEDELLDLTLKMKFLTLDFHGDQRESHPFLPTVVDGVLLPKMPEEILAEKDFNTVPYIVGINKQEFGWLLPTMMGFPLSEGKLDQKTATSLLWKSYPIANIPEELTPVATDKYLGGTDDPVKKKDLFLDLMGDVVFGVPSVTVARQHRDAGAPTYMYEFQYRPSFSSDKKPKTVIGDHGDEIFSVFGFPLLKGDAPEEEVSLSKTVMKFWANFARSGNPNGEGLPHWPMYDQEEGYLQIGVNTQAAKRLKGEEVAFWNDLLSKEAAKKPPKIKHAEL

[13] = Toxicity in BALB/c nude mouse xenografted with human 143B cells assessed as body weight loss at 5 mg/kg, po administered once daily for 28 consecutive days and measured every 3 days; format: organism-based; settings: in vivo, 672 h, time 28 day
[14] = Toxicity in BALB/c nude mouse xenografted with human 143B cells assessed as cellular inflammation in spleen at 5 to 20 mg/kg, po administered once daily for 28 consecutive days by hematoxylin-eosin staining based assay; format: organism-based; settings: in vivo, 672 h, dose 5-20 mg/kg, time 28 day
[15] = Toxicity in BALB/c nude mouse xenografted with human 143B cells assessed as heart edema at 5 to 20 mg/kg, po administered once daily for 28 consecutive days by hematoxylin-eosin staining based assay; format: organism-based; settings: in vivo, 672 h, dose 5-20 mg/kg, time 28 day
[16] = Toxicity in BALB/c nude mouse xenografted with human 143B cells assessed as liver edema at 5 to 20 mg/kg, po administered once daily for 28 consecutive days by hematoxylin-eosin staining based assay; format: organism-based; settings: in vivo, 672 h, dose 5-20 mg/kg, time 28 day
[17] = Toxicity in BALB/c nude mouse xenografted with human 143B cells assessed as spleen edema at 5 to 20 mg/kg, po administered once daily for 28 consecutive days by hematoxylin-eosin staining based assay; format: organism-based; settings: in vivo, 672 h, dose 5-20 mg/kg, time 28 day
[18] = Toxicity in BALB/c nude mouse xenografted with human 143B cells assessed as lung edema at 5 to 20 mg/kg, po administered once daily for 28 consecutive days by hematoxylin-eosin staining based assay; format: organism-based; settings: in vivo, 672 h, dose 5-20 mg/kg, time 28 day
[19] = Toxicity in BALB/c nude mouse xenografted with human 143B cells assessed as necrosis in heart at 5 to 20 mg/kg, po administered once daily for 28 consecutive days by hematoxylin-eosin staining based assay; format: organism-based; settings: in vivo, 672 h, dose 5-20 mg/kg, time 28 day
[20] = Toxicity in BALB/c nude mouse xenografted with human 143B cells assessed as necrosis in liver at 5 to 20 mg/kg, po administered once daily for 28 consecutive days by hematoxylin-eosin staining based assay; format: organism-based; settings: in vivo, 672 h, dose 5-20 mg/kg, time 28 day
[21] = Toxicity in BALB/c nude mouse xenografted with human 143B cells assessed as necrosis in spleen at 5 to 20 mg/kg, po administered once daily for 28 consecutive days by hematoxylin-eosin staining based assay; format: organism-based; settings: in vivo, 672 h, dose 5-20 mg/kg, time 28 day
[22] = target: T2, Glutathione S-transferase P; settings: dose 0.1-5 µM
Target sequence in this assay (P09211 2-210 limits assumed): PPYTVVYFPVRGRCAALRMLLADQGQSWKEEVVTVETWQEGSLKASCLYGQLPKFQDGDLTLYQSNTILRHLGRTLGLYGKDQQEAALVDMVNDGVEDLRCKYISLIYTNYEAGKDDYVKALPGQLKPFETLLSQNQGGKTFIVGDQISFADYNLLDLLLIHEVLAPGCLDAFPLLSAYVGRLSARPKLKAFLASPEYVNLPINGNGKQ

[23] = rat, in vivo, po, 80 mg/kg, 48 h
Description: Plasma clearance in Sprague-Dawley rat at 80 mg/kg, po administered as single dose measured upto 48 hrs by LC-MS/MS analysis

in vivo = settings: Sprague-Dawley, rat, po, 80 mg/kg
Description: Terminal half life in Sprague-Dawley rat at 80 mg/kg, po administered as single dose measured upto 48 hrs by LC-MS/MS analysis

Work on `CN(C)CCCNC(=O)CCC(=O)OCCCCCCSc1ccc([N+](=O)[O-])c2nonc12` yielded an IC50 [1] of 90 nM, a Ki [2] of 170 nM and an IC50 (A549) of 1580 nM. The IC50 [3] was 950 nM, the IC50 (143B [4]) was 1180 nM and the IC50 (HOS) was 1850 nM. For the same compound, the Activity (143B [5]) was 40.75%, the Activity (143B [6]) was 9.46% and the Activity (143B [7]) was 49.82%. The Activity (143B [8]) was 34.94%, the Activity (143B [9]) was 21.01% and the Activity (143B [10]) was 84%. It also gave a Vd [11] of 7.62 L/kg, an MRT inf at 48 h [12] of 6.54 h and a metabolised at 24 h, 10000 µM (liver carboxylesterase) of 45%. The Activity [13] was “Non-Toxic”, the Activity [14] was “Non-Toxic” and the Activity [15] was “Non-Toxic”. For the same compound, the Activity [16] was “Non-Toxic”, the Activity [17] was “Non-Toxic” and the Activity [18] was “Non-Toxic”. The Activity [19] was “Non-Toxic”, the Activity [20] was “Non-Toxic” and the Activity [21] was “Non-Toxic”. For the same compound, the Kinact [22] was 0.17 min⁻¹, the CL [23] was 64.2 mL/min/kg and the half-life at 48 h (in vivo) was 7.28 h.
